Reference: patent US12479816B2, “20-HETE formation inhibitors” (UNIVERSITY OF PITTSBURGH—OF THE COMMONWEALTH SYSTEM OF …, priority 2019, dated 2025)
Where two headings read alike, the source gives them in different places.

Legend:
[1] = tested on: 20-HETE formation (CYP4) in HLM; assay: Inhibition of 20-HETE formation at 250 or 500 nM in HLM microsomal incubations; assay type: biochemical, human; conditions: 500 nM compound; HLM 300 μg/ml, AA 100 μM, 20 min
Outline: (§1)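 Protein 300 μg/ml (microsomes) / 25 pmol/mL (rCYP4F2); AA 100 μM; NADPH 1 mM start; KPi 0.12 M + 5 mM MgCl2; 20 min, 37° C. Read-out: 20-HETE by UPLC-MS/MS (d6 IS), % of vehicle, n=3.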

[2] = tested on: 20-HETE formation (CYP4) in HLM; assay: IC50 determination, 20-HETE formation in HLM; assay type: biochemical, human; conditions: HLM 300 μg/ml, AA 100 μM, 12 concentrations
Method: Microsomal incubations contained HLM, RLM (300 μg/ml), AA (100 μM), NADPH (1 mM) and test compounds at 12 concentrations (0.1 nM-50 μM) in a 1 ml total volume in microsomal incubation buffer (0.12 M potassium phosphate buffer containing 5 mM magnesium chloride). Reaction was started by adding NADPH to the incubates and was carried out at 37° C. in a shaking water bath for 20 min. Reaction was stopped by placing tubes on ice, followed by adding 12.5 μl 20-HETE-d6 as internal standard to each sample. Microsomal incubations were extracted with 3 ml ethyl ether twice, dried down under nitrogen gas and reconstituted in 125 μl 80:20 methanol:deionized H2O for analysis. 20-HETE formation was quantified using the validated UPLC-MS/MS assay described above and normalized by vehicle group. HET0016 (250 nM) was used as positive control. Incubates without NADPH group served as the negative control. IC50 was determined by fitting the dose-response curve using Graphpad Prism nonlinear regression.

rCYP4F2 = molecular target: T1, rCYP4F2 (Homo sapiens, UniProt P78329); assay: Inhibition of 20-HETE formation at 250 or 500 nM in rCYP4F2 incubations; assay type: biochemical; conditions: 500 nM compound; rCYP4F2 25 pmol/mL; read-out: rCYP4F2 % inh. @ 500 nM
T1 sequence (P78329 5-520): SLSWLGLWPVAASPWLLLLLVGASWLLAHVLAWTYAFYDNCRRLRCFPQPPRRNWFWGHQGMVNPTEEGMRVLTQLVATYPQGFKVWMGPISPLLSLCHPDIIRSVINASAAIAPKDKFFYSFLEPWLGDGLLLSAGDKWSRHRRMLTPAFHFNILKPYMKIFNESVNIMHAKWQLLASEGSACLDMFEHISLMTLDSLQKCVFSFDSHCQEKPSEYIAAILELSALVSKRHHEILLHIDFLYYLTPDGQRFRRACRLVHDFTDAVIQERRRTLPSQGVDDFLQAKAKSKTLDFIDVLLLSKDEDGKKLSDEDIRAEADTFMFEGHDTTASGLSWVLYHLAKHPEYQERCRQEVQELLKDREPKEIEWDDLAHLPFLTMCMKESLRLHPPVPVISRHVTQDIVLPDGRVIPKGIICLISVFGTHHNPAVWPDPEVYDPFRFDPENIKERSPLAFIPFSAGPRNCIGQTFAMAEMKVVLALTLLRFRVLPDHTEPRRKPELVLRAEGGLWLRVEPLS
Outline: as §1

[3] = tested on: 20-HETE formation (CYP4) in RKM; assay: Inhibition of 20-HETE formation at 250 or 500 nM in RKM microsomal incubations; assay type: biochemical, rat; conditions: 500 nM compound; RKM 300 μg/ml
Method: To screen the inhibitory effects against 20-HETE formation, compounds were screened in HLM, RLM, RKM and rCYP4F2 microsomal incubations. Compounds dissolved in either 100% methanol or 100% DMSO to yield 10 mM stock solution. Microsomal incubations containing HLM, RLM, RKM (300 μg/ml) or rCYP4F2 (25 pmol/mL), AA (100 μM), NADPH (1 mM) treated with test compounds at various concentrations (500 nM or 250 nM) in a 1 ml total volume in incubation buffer (0.12 M potassium phosphate buffer containing 5 mM magnesium chloride). Reaction was started by adding NADPH to the incubates and was carried out at 37° C. in a shaking water bath for 20 min. Reaction was stopped by placing tubes on ice, followed by adding 125 μl 20-HETE-d6 as internal standard to each sample. Microsomal incubations were extracted with 3 ml ethyl ether twice, dried down under nitrogen gas and reconstituted in 125 μl 80:20 methanol:deionized H2O for analysis. 20-HETE formation was quantified using a validated UPLC-MS/MS assay and normalized by vehicle group. Each compound had three replications (n=3). Vehicle group was used as control to calculate percentage of 20-HETE formation rate. HET0016 (250 nM) was used as positive control. Incubates without NADPH group served as the negative control. An Acquity ultra performance LC autosampler (Waters, Milford, MA) was used to isolate 20-HETE on an UPLC BEH C18, 1.7 μm (2.1×100 mm) reversed-phase column (Waters, Milford, MA) protected by a guard column (2.1×5 mm; Waters, Milford, MA) of the same packing material. Column temperature was maintained at 55° C. Mobile phases consisted of 0.005% acetic acid, 5% acetonitrile in deionized water (A) and 0.005% acetic acid in acetonitrile (B). The flow rate for mobile phases is 0.5 ml/min. The initial mixture of mobile phase was 65:35 of A and B. Mobile phase B increased at 0.4 minutes after injection from 35% to 70% in a linear gradient over 4 minutes, and again increased to 95% over 0.5 minutes where it remained for 0.3 minutes. This was followed by a linear return to initial conditions over 0.1 minutes with a 1.5 minute pre-equilibration period prior to the next sample run. Total run time was 6.4 minutes for each injection. Injection volumes were 7.5 μl. Mass spectrometric analysis was carried out using a TSQ Quantum Ultra (Thermo Fisher Scientific, San Jose, CA) triple quadrupole mass spectrometer using heated electrospray ionization (HESI). Mass spectrometer was operated in negative selective reaction monitoring (SRM) mode with unit resolutions at both Q1 and Q3 set at 0.70 Da full width at half maximum. Scan time was set at 0.01 s and collision gas pressure was 1.3 mTorr. Quantitation of 20-HETE by SRM was performed by monitoring the m/z. Analytical data was acquired and analyzed using Xcaliber 3.0 data system (ThermoFinnigan, San Jose, CA).

[4] = tested on: 20-HETE formation (CYP4) in RLM; assay: Inhibition of 20-HETE formation at 250 or 500 nM in RLM microsomal incubations; assay type: biochemical, rat; conditions: 500 nM compound; RLM 300 μg/ml
Outline: as §1

[5] = Turbidometric solubility determination; assay type: physicochemical; conditions: PBS with 1% DMSO, aqueous buffer, kinetic from dmso stock, room temperature
Outline: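 Precipitation was detected as a significant rise in absorbance at 620 nm over background, and this point set the maximum solubility. Compound was tested in PBS with 1% DMSO at final concentrations from 0 to 600 μM, in triplicate, after 2 h of shaking at room temperature.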

MDR1 (P-gp) = assay: BBB penetration potential, MDR1-MDCK permeability; assay type: in vitro ADME; conditions: dog; for Papp A→B at 120 min, 5 μM: apical to basolateral, pH 7.4, read-out: BBB penetration potential MDCK A-B 10−6 cm/s; for Papp B→A at 120 min, 5 μM: basolateral to apical, pH 7.4, read-out: BBB penetration potential MDCK B-A 10−6 cm/s
Method: BBB penetration potential assessment data in Table 1 was obtained as follows. MDR1-MDCK cell monolayers were grown to confluence on collagen-coated, microporous membranes in 12-well assay plates. Atenolol, propranolol and digoxin were used as control to assess plate quality. The permeability assay buffer was Hanks' balanced salt solution containing 10 mM HEPES and 15 mM glucose at a pH of 7.4. The buffer in the receiver chamber also contained 1% bovine serum albumin. The dosing solution concentration was 5 μM of test article in the assay buffer. Cell monolayers were dosed on the apical side (A-to-B) or basolateral side (B-to-A) and incubated at 37° C. with 5% CO2 in a humidified incubator. Samples were taken from the donor and receiver chambers at 120 minutes. Each determination was performed in duplicate the flux of lucifer yellow was also measured post-experimentally for each monolayer to ensure no damage was inflicted to the cell monolayers during the flux period. All samples were assayed by LC-MS/MS using electrospray ionization using a PE SCIEX API 4000 spectrometer and total run time of 1 min. Analytical method/conditions were: Liquid Chromatography Column: Waters ACQUITY UPLC BEH Phenyl 30×2.1 mm, 1.7 m; M.P. Buffer: 25 mM ammonium formate buffer, pH 3.5; Aqueous Reservoir (A): 90% water, 10% buffer; Organic Reservoir (B): 90% acetonitrile, 10% buffer; Flow Rate: 0.7 mL/minute; gradient program: 99% A (t=0 min), 1% A (t=0.65 min), 1% A (t=0.75 min), 99% A (t=0.8 min), 99% A (t=1 min); 5 μL injection volume
The apparent permeability (Papp) and percent recovery were calculated as follows: Papp=(dCr/dt)×Vr/(A×CA) (1) Percent Recovery=100×((Vr×Cr^final)+(Vd×Cd^final))/(Vd×CN) (2)
wherein: • dCr/dt is the slope of the cumulative concentration in the receiver compartment versus time in μMs^−1; • Vr is the volume of the receiver compartment in cm^3; • Vd is the volume of the donor compartment in cm^3; • A is the area of the insert (1.13 cm^2 for 12-well); • CA is the average of the nominal dosing concentration and the measured 120 minute donor concentration in μM; • CN is the nominal concentration of the dosing solution in μM; • Cr^final is the cumulative receiver concentration in μM at the end of the incubation period; • Cd^final is the concentration of the donor in μM at the end of the incubation period. Efflux ratio (ER) is defined as Papp (B-to-A)/Papp (A-to-B) Interpretation Brain Penetration Potential Classification: • Papp (A-to-B)≥3.0 and ER<3.0: High • Papp (A-to-B)≥3.0 and 10>ER≥3.0: Moderate • Papp (A-to-B)≥3.0 and ER≥10, or Papp (A-to-B)<3.0 Low

SMILES	HLM % inh. @ 500 nM [1] [%]	IC50 [2] [µM]	inhibition at 0.5 µM (rCYP4F2) [%]	RKM % inh. @ 500 nM [3] [%]	RLM % inh. @ 500 nM [4] [%]	solubility at 2 h ([5]; OD620, read-out: Max Solub) [µM]	solubility at 2 h ([5]; read-out: Solubility_ug/mL) [µg/mL]	Papp A→B at 120 min, 5 μM (MDR1 (P-gp)) [×10⁻⁶ cm/s]	Papp B→A at 120 min, 5 μM (MDR1 (P-gp)) [×10⁻⁶ cm/s]
CC(=O)Nc1ccc(C2CCN(c3ccn[nH]3)CC2)cc1 [Compound 29, N-(4-(1-(1H-Pyrazol-5-yl)piperidin-4-yl)phenyl)acetamide]	60.00	0.17	55	7.00	38.00	> 600	171		
COc1ccc(C2CCN(c3cn[nH]c3)CC2)cn1 [Compound 32, 5-(1-(1H-Pyrazol-4-yl)piperidin-4-yl)-2-methoxypyridine]	59.00	0.13	67	25.00	0.00	391	101		
Cc1cccc(C2CCN(c3ccn[nH]3)CC2)c1 [Compound 33, 1-(1H-Pyrazol-5-yl)-4-(m-tolyl)piperidine]	72.00	0.18	69	16.00	12.00				
Cc1ccccc1C1CCN(c2cn[nH]c2)CC1 [Compound 36, 1-(1H-Pyrazol-4-yl)-4-(o-tolyl)piperidine]	46.00	0.65	61	4.00	0.00	752			
COc1ccc(C2CCN(c3cn[nH]c3)CC2)cc1Cl [Compound 64, 4-(3-Chloro-4-methoxyphenyl)-1-(1H-pyrazol-4-yl)piperidine]	88		72		49.00	19.5		46.4	34.8
CC(=O)N(C)c1ccc(C2CCN(c3cn[nH]c3)CC2)c(F)c1 [Compound 69, N-(4-(1-(1H-Pyrazol-4-yl)piperidin-4-yl)-3-fluorophenyl)-N-methylacetamide]	85.6		57.9		27.70	304		22.3	44.4

The next lines start with the values.

HLM % inh. @ 500 nM [1] [%]	IC50 [2] [µM]	inhibition at 0.5 µM (rCYP4F2) [%]	RKM % inh. @ 500 nM [3] [%]	RLM % inh. @ 500 nM [4] [%]	solubility at 2 h ([5]; OD620, read-out: Max Solub) [µM]	solubility at 2 h ([5]; read-out: Solubility_ug/mL) [µg/mL]	Papp A→B at 120 min, 5 μM (MDR1 (P-gp)) [×10⁻⁶ cm/s]	Papp B→A at 120 min, 5 μM (MDR1 (P-gp)) [×10⁻⁶ cm/s]	SMILES
83.1	0.0474	66		19.30	353				O=C(c1ccc(C2CCN(c3cn[nH]c3)CC2)c(F)c1)N1CCCC1 [Compound 81, (4-(1-(1H-Pyrazol-4-yl)piperidin-4-yl)-3-fluorophenyl)(pyrrolidin-1-yl)methanone]
79.00		80		48.70	158		33.8	46.7	O=C1CCCN1c1ccc(C2CCN(c3ccn[nH]3)CC2)cc1 [Compound 101, 1-(4-(1-(1H-Pyrazol-5-yl)piperidin-4-yl)phenyl)pyrrolidin-2-one]
86.1		78		36.00	31		50.4	48.9	CC(Nc1ccc(C2CCN(c3cn[nH]c3)CC2)cc1)C(F)(F)F (stereo not drawn) [Compound 104, 4-(1-(1H-Pyrazol-4-yl)piperidin-4-yl)-N-(1,1,1-trifluoropropan-2-yl)aniline]
